Results published in patent publication US6428820B2, “Extracts of Hypericum perforatum and formulations containing them” (Indena S.p.A., priority 1999, dated 2002).
≈ marks a conversion by molar mass, not a printed value.

Legend:
[1] = system: serotonin (5-HT) uptake; test: Inhibition of 3H 5-HT (serotonin) uptake; type: biochemical; settings: inhibition of 3H 5-HT uptake
[2] = system: dopamine (DA) uptake; settings: inhibition of 3H DA uptake

Q: Cc1cc(O)c2c(=O)c3c(O)cc(O)c4c5c(O)cc(O)c6c(=O)c7c(O)cc(CO)c8c1c2c(c34)c(c65)c78 [Pseudo-hypericin] was tested. Which “IC50 3H-5 HT uptake” value [1] did it give?
A: The value was 27.0 ± 1.1020 µg/mL (≈ 51.9 µM).

Q: What about the “IC50 3H DA uptake” value [2] of the same molecule?
A: The value was 1.40 ± 0.13 µg/mL (≈ 2.69 µM).

Q: How did the “IC50 3H-5 HT uptake” value [1] turn out when Hyperforin was run?
A: Its value is 4.75 ± 0.79 µg/mL.

Q: And the “IC50 3H DA uptake” value [2]?
A: Its value is 1.54 ± 0.23 µg/mL.
